Source: patent US20250136576A1, “Heterocyclic Compounds and Uses Thereof” (ACEA Therapeutics, Inc., priority 2021, published 2025)

system: KM12-luc cells; test: Cell proliferation and growth inhibition assay (CCK-8) in KM12-luc; assay type: cell-based; details: KM12-Luc, 72 h, KM12-luc cells, treated with test compounds for 72 hrs, CCK-8 viability; read-out: NTRK IC50 in KM12-luc
Procedure, shortened: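 IC50 values were fitted by sigmoidal dose-response non-linear regression of CCK-8 OD450 absorbance after 1-4 hrs with reagent. Culture media were IMDM for MV-4-11, RPMI 1640 for H1975 and DMEM for KM12-luc, each with 10% FBS at 37 °C, 5% CO2.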

Compound | IC50
COc1cccc2c(-c3nc(Nc4ccc(N5CC[C@H](N(C)C)C5)c(N)c4)ncc3Cl)cn(C)c12 [Compound S-439, (S)—N^1-(5-chloro-4-(7-methoxy-1-methyl-1H-indol-3-yl)pyrimidin-2-yl)-4-(3-(dimethylamino)pyrrolidin-1-yl)benzene-1,3-diamine] | 150 nM

system: H1975 cells; test: Cell proliferation and growth inhibition assay (CCK-8) in H1975; assay type: cell-based; details: Homo sapiens, NCI-H1975, 72 h, treated with test compounds for 72 hrs, CCK-8 viability, read-out: EGFR IC50 in H1975
Description: MV-4-11 and H1975 cells were obtained from the American Type Culture Collection and KM12-luc cells were obtained from JCRB Cell Bank. All cell lines were maintained at 37° C. with 5% C02, in media supplemented with 10% fetal bovine serum and penicillin (100 units/mL) and streptomycin (100 μg/mL). MV-4-11 cells were maintained in Iscove's Modified Dubecco's Medium, H1975 cells were cultured with RPMI 1640 media, and KM12-luc cells were maintained in Dulbecco's Modification of Eagle's Medium. CCK-8 reagent was obtained from Yeasen.
Cell proliferation was assessed by CCK-8 assay (Yeasen) per the manufacturer's instructions. The MV-4-11 (AML), H1975, and KM12-luc cells were seeded at 30,000, 3,000 and 2,500 cells per well onto 96-well plates, and after a 24 h incubation, the cells were treated with test compounds for 72 hrs. Cell viability was assayed by incubating the cells with CCK-8 reagent for 1-4 hrs. Absorbance was measured at OD450 using the Beckman DTX880. The data was calculated using GraphPad Prism version 6.01. The IC50 values were fitted using a non-linear regression model with a sigmoidal dose response.

Compound | IC50
CCC(=O)Nc1cc(Nc2nc(-c3c[nH]c4c(OC)cccc34)c3cc[nH]c3n2)ccc1N(C)CCN(C)C [Compound 518, N-(2-((2-(dimethylamino)ethyl)(methyl)amino)-5-((4-(7-methoxy-1H-indol-3-yl)-7H-pyrrolo[2,3-d]pyrimidin-2-yl)amino)phenyl)propionamide] | 406 nM
CN(C)CCN(C)c1ccc(Nc2ncc(F)c(-c3c[nH]c4c(F)cccc34)n2)cc1N [Compound 520, N^1-(2-(dimethylamino)ethyl)-N^4-(5-fluoro-4-(7-fluoro-1H-indol-3-yl)pyrimidin-2-yl)-N-methylbenzene-1,2,4-triamine] | 1180 nM
CC(=O)Nc1cc(Nc2ncc(F)c(-c3c[nH]c4c(F)cccc34)n2)ccc1N(C)CCN(C)C [Compound 521, N-(2-((2-(dimethylamino)ethyl)(methyl)amino)-5-((5-fluoro-4-(7-fluoro-1H-indol-3-yl)pyrimidin-2-yl)amino)phenyl)acetamide] | 695 nM
CCC(=O)Nc1cc(Nc2ncc(F)c(-c3c[nH]c4c(F)cccc34)n2)ccc1N(C)CCN(C)C [Compound 522, N-(2-((2-(dimethylamino)ethyl)(methyl)amino)-5-((5-fluoro-4-(7-fluoro-1H-indol-3-yl)pyrimidin-2-yl)amino)phenyl)propionamide] | 999 nM
Cc1cccc2c(-c3nc(Nc4ccc(N(C)CCN(C)C)c(N)c4)ncc3F)c[nH]c12 [Compound 524, N^1-(2-(dimethylamino)ethyl)-N^4-(5-fluoro-4-(7-methyl-1H-indol-3-yl)pyrimidin-2-yl)-N^1-methylbenzene-1,2,4-triamine] | 425 nM
CC(=O)Nc1cc(Nc2ncc(F)c(-c3c[nH]c4c(C)cccc34)n2)ccc1N(C)CCN(C)C [Compound 525, N-(2-((2-(dimethylamino)ethyl)(methyl)amino)-5-((5-fluoro-4-(7-methyl-1H-indol-3-yl)pyrimidin-2-yl)amino)phenyl)acetamide] | 406 nM
CCC(=O)Nc1cc(Nc2ncc(F)c(-c3c[nH]c4c(C)cccc34)n2)ccc1N(C)CCN(C)C [Compound 526, N-(2-((2-(dimethylamino)ethyl)(methyl)amino)-5-((5-fluoro-4-(7-methyl-1H-indol-3-yl)pyrimidin-2-yl)amino)phenyl)propionamide] | 656 nM
COc1cccc2c(-c3nc(Nc4ccc(N(C)CCN(C)C)c(N)c4)ncc3F)c[nH]c12 [Compound 528, N^1-(2-(dimethylamino)ethyl)-N^1-methyl-N^4-(5-fluoro-4-(7-methoxy-1H-indol-3-yl)pyrimidin-2-yl)benzene-1,2,4-triamine] | 298 nM
COc1cccc2c(-c3nc(Nc4ccc(N(C)CCN(C)C)c(NC(C)=O)c4)ncc3F)c[nH]c12 [Compound 529, N-(2-((2-(dimethylamino)ethyl)(methyl)amino)-5-((5-fluoro-4-(7-methoxy-1H-indol-3-yl)pyrimidin-2-yl)amino)phenyl)acetamide] | 958 nM
CCC(=O)Nc1cc(Nc2ncc(F)c(-c3c[nH]c4c(OC)cccc34)n2)ccc1N(C)CCN(C)C [Compound 530, N-(2-((2-(dimethylamino)ethyl)(methyl)amino)-5-((5-fluoro-4-(7-methoxy-1H-indol-3-yl)pyrimidin-2-yl)amino)phenyl)propionamide] | 769 nM
COc1cnc(Nc2ccc(N(C)CCN(C)C)c(N)c2)nc1-c1c[nH]c2c(C)cccc12 [Compound 532, N^1-(2-(dimethylamino)ethyl)-N^1-methyl-N^4-(5-methoxy-4-(7-methyl-1H-indol-3-yl)pyrimidin-2-yl)benzene-1,2,4-triamine] | 791 nM
COc1cnc(Nc2ccc(N(C)CCN(C)C)c(NC(C)=O)c2)nc1-c1c[nH]c2c(C)cccc12 [Compound 533, N-(2-((2-(dimethylamino)ethyl)(methyl)amino)-5-((5-methoxy-4-(7-methyl-1H-indol-3-yl)pyrimidin-2-yl)amino)phenyl)acetamide] | 1110 nM
CCC(=O)Nc1cc(Nc2ncc(OC)c(-c3c[nH]c4c(C)cccc34)n2)ccc1N(C)CCN(C)C [Compound 534, N-(2-((2-(dimethylamino)ethyl)(methyl)amino)-5-((5-methoxy-4-(7-methyl-1H-indol-3-yl)pyrimidin-2-yl)amino)phenyl)propionamide] | 1300 nM
COc1cnc(Nc2ccc(N(C)CCN(C)C)c(N)c2)nc1-c1c[nH]c2c(OC)cccc12 [Compound 536, N^1-(2-(dimethylamino)ethyl)-N^1-methyl-N^4-(5-methoxy-4-(7-methoxy-1H-indol-3-yl)pyrimidin-2-yl)benzene-1,2,4-triamine] | 837 nM
CCC(=O)Nc1cc(Nc2ncc(OC)c(-c3c[nH]c4c(OC)cccc34)n2)ccc1N(C)CCN(C)C [Compound 538, N-(2-((2-(dimethylamino)ethyl)(methyl)amino)-5-((5-methoxy-4-(7-methoxy-1H-indol-3-yl)pyrimidin-2-yl)amino)phenyl)propionamide] | 3680 nM
CCC(=O)Nc1cc(Nc2ncc(C(F)(F)F)c(-c3c[nH]c4c(F)cccc34)n2)ccc1N(C)CCN(C)C [Compound 540, N-(2-((2-(dimethylamino)ethyl)(methyl)amino)-5-((4-(7-fluoro-1H-indol-3-yl)-5-(trifluoromethyl)pyrimidin-2-yl)amino)phenyl)propionamide] | 95.4 nM
CCC(=O)Nc1cc(Nc2ncc(C(F)(F)F)c(-c3c[nH]c4c(C)cccc34)n2)ccc1N(C)CCN(C)C [Compound 542, N-(2-((2-(dimethylamino)ethyl)(methyl)amino)-5-((4-(7-methyl-1H-indol-3-yl)-5-(trifluoromethyl)pyrimidin-2-yl)amino)phenyl)propionamide] | 80.4 nM
CCC(=O)Nc1cc(Nc2ncc(C(F)(F)F)c(-c3c[nH]c4c(OC)cccc34)n2)ccc1N(C)CCN(C)C [Compound 543, N-(2-((2-(dimethylamino)ethyl)(methyl)amino)-5-((4-(7-methoxy-1H-indol-3-yl)-5-(trifluoromethyl)pyrimidin-2-yl)amino)phenyl)propionamide] | 67.4 nM
CN(C)CCN(C)c1ccc(Nc2nccc(-c3c[nH]c4c(F)cccc34)n2)cc1N [Compound 545, N^1-(2-(dimethylamino)ethyl)-N^1-methyl-N^4-(4-(7-fluoro-1H-indol-3-yl)pyrimidin-2-yl)benzene-1,2,4-triamine] | 876 nM
CC(=O)Nc1cc(Nc2nccc(-c3c[nH]c4c(F)cccc34)n2)ccc1N(C)CCN(C)C [Compound 546, N-(2-((2-(dimethylamino)ethyl)(methyl)amino)-5-((4-(7-fluoro-1H-indol-3-yl)pyrimidin-2-yl)amino)phenyl)acetamide] | 1020 nM
CCC(=O)Nc1cc(Nc2nccc(-c3c[nH]c4c(F)cccc34)n2)ccc1N(C)CCN(C)C [Compound 547, N-(2-((2-(dimethylamino)ethyl)(methyl)amino)-5-((4-(7-fluoro-1H-indol-3-yl)pyrimidin-2-yl)amino)phenyl)propionamide] | 1180 nM
Cc1cccc2c(-c3ccnc(Nc4ccc(N(C)CCN(C)C)c(N)c4)n3)c[nH]c12 [Compound 549, N^1-(2-(dimethylamino)ethyl)-N^1-methyl-N^4-(4-(7-methyl-1H-indol-3-yl)pyrimidin-2-yl)benzene-1,2,4-triamine] | 682 nM
CCC(=O)Nc1cc(Nc2nccc(-c3c[nH]c4c(C)cccc34)n2)ccc1N(C)CCN(C)C [Compound 550, N-(2-((2-(dimethylamino)ethyl)(methyl)amino)-5-((4-(7-methyl-1H-indol-3-yl)pyrimidin-2-yl)amino)phenyl)propionamide] | 1510 nM
CC(=O)Nc1cc(Nc2nccc(-c3c[nH]c4c(C)cccc34)n2)ccc1N(C)CCN(C)C [Compound 551, N-(2-((2-(dimethylamino)ethyl)(methyl)amino)-5-((4-(7-methyl-1H-indol-3-yl)pyrimidin-2-yl)amino)phenyl)acetamide] | 1540 nM
COc1cccc2c(-c3ccnc(Nc4ccc(N(C)CCN(C)C)c(N)c4)n3)c[nH]c12 [Compound 553, N^1-(2-(dimethylamino)ethyl)-N^4-(4-(7-methoxy-1H-indol-3-yl)pyrimidin-2-yl)-N^1-methylbenzene-1,2,4-triamine] | 1140 nM

same assay, conditions: treated with test compounds for 72 hrs, CCK-8 viability, read-out: EGFR IC50 in H1975

Compound | IC50
COc1cnc(Nc2ccc(N(C)CCN(C)C)c(NC(C)=O)c2)nc1-c1c[nH]c2c(C)cccc12 [Compound 537, N-(2-((2-(dimethylamino)ethyl)(methyl)amino)-5-((5-methoxy-4-(7-methyl-1H-indol-3-yl)pyrimidin-2-yl)amino)phenyl)acetamide] | 1080 nM
